Literature values, collected in patent publication US20230346830A1 (priority 2020, published 2023).
Read-outs that look alike come from different tables or passages of the source.

What was measured:
[1] = 160 ppm for 30 min every 3.5 hours, intermittent
[2] = test system: severe acute respiratory syndrome SARS; settings: in vivo
[3] = test system: broad range of microorganisms; settings: no less than 160 ppm, five hours of continuous exposure

Structure (SMILES)	methemoglobinemia [1]	arterial oxygen saturation [2]	lung infiltrates [2]	antimicrobial response in vitro [3]	replication cycle of SARS CoV (SARS CoV)	survival of infected mice (influenza WSN/33; administered prophylactically or post-influenza infection, 80 ppm continuous or 160 ppm intermittent)	lung viral load between experimental groups (influenza WSN/33; influenza-infected mice)	effect on the virus (influenza WSN/33; influenza-infected mice, continuously at 80 ppm or intermittently at 160 ppm for 30 minutes followed by 3½ hours of breathing air)	inhibition of the virus replication cycle compared with cytokine treatment (SARS CoV; 50 μM SNAP)	reduction in the yield of progeny virus (SARS CoV; 100 μM SNAP)	viral RNA production (SARS CoV; 400 μM SNAP)	inhibitory effect on yield of progeny virus (SARS CoV; 400 μM SNAP, compared with 100 μM)	replication cycle of SARS CoV (SARS CoV; concentration-dependent)
[N]=O [NO, Nitric oxide]	could prevent methemoglobinemia	improved	decreased the spread and intensity	non-specific antimicrobial response	specifically inhibits	failed to improve survival	No difference	no effect					
CC(=O)N[C@H](C(=O)O)C(C)(C)SN=O (racemic) [SNAP, S-nitroso-N-acetylpenicillamine]									same level of inhibition	2 log	significantly inhibited	even more pronounced	significantly inhibited
